# Measured values from patent publication US20250144107A1, “USE OF A PIKFYVE INHIBITOR IN COMBINATION WITH IMMUNOTHERAPY” (The Regents of the University of Michigan, priority 2023, published 2025).
# System: cDCs
# Assay: Phenotype of cultured cDCs (flow cytometry, western blot)
# Format: cell-based, mice
# Method: FIG. 13G (Left) is a line graph of the relative median fluorescent intensity of the surface MHC-I on DMSO or apilimod-treated cDCs treated for 20 hours after 6 days of culture. FIG. 13G (Right) is a box and whisker plot of the surface MHC-I on DMSO or apilimod-treated cDCs treated for 20 hours after 6 days of culture
# FIG. 13H a western blot showing the total vinculin, loading control, and total MHC-I in DMSO or apilimod-treated, 20 hours, cDC lysates after 6 days of culture.
# FIG. 13K (Left) is a line graph of the relative median fluorescent intensity of the surface MHC-II on DMSO or apilimod-treated, 20 hours, cDCs treated after 6 days of culture. FIG. 13K (Right) is a box and whisker plot of the surface MHC-II on DMSO or apilimod-treated, 20 hours, cDCs treated after 6 days of culture.
# FIG. 13L a western blot showing the total vinculin, loading control, and total MHC-II in DMSO or apilimod-treated, 20 hours, cDC lysates after 6 days of culture.
# FIG. 13N a western blot showing the total histone H3, loading control, and total CD80 and CD86 in apilimod-treated, 20 hours, PIKfyve WT vs. KO cDC lysates after 6 days of culture.
# FIG. 13P is a series of six scatter plots of surface CD80 and CD86 on DMSO or apilimod-treated cDCs, with or without 20 hours of PolyI:C, 50 μg/ml, or lipopolysaccharide (LPS), 50 ng/ml, treatment after 6 days of culture.
# FIG. 13R a western blot showing the total vinculin, loading control, and total CD40 in DMSO or apilimod-treated, 20 hours, cDC lysates treated with or without additional LPS, 50 ng/ml, after 6 days of culture day 6.
# FIG. 19B is a line graph of representative density plot of median fluorescent intensity of surface XCR1 in DMSO or apilimod-treated, 20 hours, cDCs after 6 days of culture.
# FIG. 26G is a line graph of the relative median fluorescent intensity of the surface MHC-I, H2-kb, H2-kd, on DMSO or apilimod-treated cDCs with or without PolyI:C, 50 μg/ml or LPS, 50 ng/ml, treatment, 20 hours, after 6 days of culture.
# FIG. 26H is a line graph of the relative median fluorescent intensity of the surface MHC-II, MHC-IA-IE, on DMSO or apilimod-treated cDCs with or without PolyI:C, 50 μg/ml or LPS, 50 ng/ml, treatment, 20 hours, after 6 days of culture.
compound,measurement,setting,value
"Cc1cccc(/C=N/Nc2cc(N3CCOCC3)nc(OCCc3ccccn3)n2)c1 [apilimod, N-[(E)-(3-methylphenyl)methylideneamino]-6-morpholin-4-yl-2-(2-pyridin-2-ylethoxy)pyrimidin-4-amine]",surface and total protein expression of MHC-II,20 hours,increased
same,MHC-I and MHC-II expression,"DCs in vitro, each agent",stimulated
same,CD80 and CD86 expression,"WT DCs, in a dose-dependent manner",induced
same,total expression of CD40,"added to LPS treatment, vs DMSO",increased
same,CD80+CD86+ cDCs,alone and in combination with PolyI:C and LPS,increase
same,MHC-I and MHC-II expression,apilimod added to PolyI:C or LPS,further enhanced
same,surface and total protein expression of MHC-I,"cDCs from WT mice, 20 hours",increased
same,total surface expression of XCR1,"cultured cDCs, 20 hours, vs DMSO",increase
